Columns and labels:
BV2 microglia cells [1] = assay: ROS production (H2DCFDA) in LPS-treated BV2 microglia; format: cell-based; conditions: 3 μM, LPS 1 μg/mL, 24 h
Text: Activation of toll-like receptors (TLRs), particularly the TLR4 subtype, is closely associated with the production of reactive oxygen and nitrogen species that contribute to neuronal death in the CNS. In this connection, NADPH oxidase enzymes are the main ones responsible for ROS production induced by NF-κB nuclear translocation. For this reason, we decided to assess the ROS levels of BV2 microglia cells treated with LPS and the effect of our compounds under this toxicity protocol. To this end, the compounds, at different concentrations (3 μM of 3a, 3b, and 3d and 10 μM of 3c) were incubated with 1 μg/mL LPS for 24 h. After this period, ROS production was measured with the fluorescent probe H2DCFDA. Treatment with LPS increased by 1.75-fold the amount of ROS compared with control cells.
(§1) Cultures were seeded into flasks containing supplemented medium and kept at 37 °C in a humidified atmosphere of 5% CO2 and 95% air. For assays, BV-2 cells were subcultured in 48-well plates at a seeding density of 1 × 10^5 cells per well. Cells were treated with LPS (Sigma-Aldrich, Madrid, Spain) for 24 or 48 h before confluence in RPMI with 1% FBS.
To measure cellular ROS, we used the molecular probe 2′,7′-dichlorodihydrofluorescein diacetate (H2DCFDA). Glial cells were loaded with 5 µM H2DCFDA as it was previously described (Parada et al., 2015). Fluorescence was measured in a fluorescence microplate reader (FLUOstar Galaxy; BMG Labtech, Offenburg, Germany). Wavelengths of excitation and emission were 485 and 520 nm, respectively. The relative pixel intensity was measured in identical regions with (ImageJ 1.52a software, National Institutes of Health, Bethesda, MD, USA).

BV2 microglia cells [2] = assay: LPS-induced activated (ramified) phenotype of BV2 microglia; format: cell-based; conditions: 3 μM, LPS 1 μg/mL, 24 h
Text: Next, we set out to study the changes in microglia phenotype under this toxicity protocol. As mentioned above, microglia are comprised of variable morphology cells that are always adapting to the surrounding media and, therefore, to physiopathological conditions. Indeed, morphological appearance is well correlated with the different states of microglia activation. The microglia-activated phenotype (M1), which is the classical state of this kind of cell in response to proinflammatory insults such as LPS, is linked with the overexpression of a plethora of cytokines and inflammatory markers, namely TNF, IL-1β, IL-6, MCP-1 or CD11b. All of these markers are commonly associated with morphological changes towards an amoeboid phenotype in primary cultures or in in vivo studies. Nevertheless, it has been recently described that BV2 microglia, as well as macrophages, turn from rounded to spindle-shaped or multipolar phenotypes in response to various M1 proinflammatory stimuli such as LPS/IFNγ or spinal cord injury conditioned media. In this context, we assessed the ability of our compounds to prevent the morphological changes induced by LPS by analyzing the percentage of BV2 ramified cells (multipolar or spindle) over the total BV2 per field following cell incubation with our compounds and 1 μg/mL LPS for 24 h.
as §1

ovine COX-1 = biological target: T1, ovine COX-1 (Ovis aries, UniProt P05979); assay: Cyclooxygenase colorimetric inhibitor screening assay, COX-1; format: biochemical;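 note: COX peroxidase activity read colorimetrically as oxidized TMPD at 590 nm, arachidonic acid as substrate, inhibitors tested at 0.001–50 µM from DMSO stocks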
T1 construct: purchased Cayman Chemicals 701050
T1 sequence (P05979 25-600): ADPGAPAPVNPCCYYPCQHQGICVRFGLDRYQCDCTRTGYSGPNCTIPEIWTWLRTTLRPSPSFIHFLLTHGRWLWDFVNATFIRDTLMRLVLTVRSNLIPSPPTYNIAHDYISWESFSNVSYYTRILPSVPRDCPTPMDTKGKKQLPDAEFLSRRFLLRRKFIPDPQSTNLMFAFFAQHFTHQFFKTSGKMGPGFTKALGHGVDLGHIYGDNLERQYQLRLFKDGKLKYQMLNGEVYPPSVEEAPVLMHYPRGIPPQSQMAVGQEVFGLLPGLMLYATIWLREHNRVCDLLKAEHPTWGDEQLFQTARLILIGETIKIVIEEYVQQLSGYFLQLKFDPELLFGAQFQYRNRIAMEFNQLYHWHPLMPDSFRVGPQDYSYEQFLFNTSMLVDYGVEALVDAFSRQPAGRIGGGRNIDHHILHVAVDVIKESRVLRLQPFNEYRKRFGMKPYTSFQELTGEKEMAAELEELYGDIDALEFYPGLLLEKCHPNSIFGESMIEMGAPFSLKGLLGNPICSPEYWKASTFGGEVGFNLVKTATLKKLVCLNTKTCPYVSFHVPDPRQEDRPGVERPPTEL
Protocol: Newly synthesized compounds were evaluated for their ability to inhibit ovine COX-1 or human COX-2 enzyme by measuring the extent (%) of enzyme activity inhibition at different concentrations (0.001, 0.01, 0.1, 1, 10, 50 μM). […] The assay kit measures the peroxidase component of COXs that is assayed colorimetrically by monitoring the appearance of oxidized N,N,N′,N′-tetramethyl-p-phenylenediamine (TMPD) a λ = 590 nm. […] Stock solutions of test compounds were dissolved in DMSO.

`Cc1ccc(-c2cc(N)cc(-c3ccccc3)c2)cc1` [Compound 3b, 4-Methyl-5′-amino-m-terphenyl] was tested, and the “ROS production induced by LPS” value (BV2 microglia cells [1]) was “significantly reverted ROS production almost to basal levels”, the “Reduction of the number of BV2 ramified cells” value (BV2 microglia cells [2]) was 60% and the inhibition at 50 µM (ovine COX-1; ovine COX-1, 50 µM, read-out: oCOX-1, % Inhibition at 50 µM (converted)) was 83%. The IC50 (ovine COX-1; ovine COX-1, colorimetric kit, triplicate, read-out: oCOX-1, IC50) was 1100 ± 180 nM and the “COX-1 selectivity (in words)” value (ovine COX-1; ovine COX-1 vs human COX-2) was “complete selectivity towards COX-1”.

— PMC10384011, “m-Terphenylamines, Acting as Selective COX-1 Inhibitors, Block Microglia Inflammatory Response and Exert Neuroprotective Activity” (Molecules, 2023)
